The text below walks through data of ChEMBL document CHEMBL4813950, “Comparing the efficacy and selectivity of Ck2 inhibitors. A phosphoproteomics approach” (Eur J Med Chem, 2021).

Each structure is given as a SMILES string. The source made the active and inactive calls. The rule behind the calls is not given here.

In experiment [1] the target is WASH complex subunit 2 (Mus musculus) (UniProt Q6PGL7). As to the kind of experiment: Inhibition of Washc2 in mouse C2C12 cells assessed as reduction in phospho-sites occupancy at 4 uM after 5 hrs by SILAC based LC-MS/MS analysis relative to control. It is filed as cell-based.
The target of experiment [2] is tRNA (guanine(26)-N(2))-dimethyltransferase (Mus musculus) (UniProt Q3TX08). As to the kind of experiment: Inhibition of Trmt1 in mouse C2C12 cells assessed as reduction in phospho-sites occupancy at 4 uM after 5 hrs by SILAC based LC-MS/MS analysis relative to control. Format: cell-based.
Experiment [3] addresses Rho GTPase-activating protein 35 (Mus musculus) (UniProt Q91YM2). As to the kind of experiment: Inhibition of Arhgap35 in mouse C2C12 cells assessed as reduction in phospho-sites occupancy at 4 uM after 5 hrs by SILAC based LC-MS/MS analysis relative to control. Format: cell-based.
Experiment [4] has as its target DNA replication licensing factor MCM2 (Mus musculus) (UniProt P97310). As to the kind of experiment: Inhibition of Mcm2 in mouse C2C12 cells assessed as reduction in phospho-sites occupancy at 4 uM after 5 hrs by SILAC based LC-MS/MS analysis relative to control. It is filed as cell-based.
Experiment [5] deals with Serine/threonine-protein kinase PAK 1 (Mus musculus) (UniProt O88643). As to the kind of experiment: Inhibition of Pak1 in mouse C2C12 cells assessed as reduction in phospho-sites occupancy at 4 uM after 5 hrs by SILAC based LC-MS/MS analysis relative to control. It is filed as cell-based.
Experiment [6] has as its target LIM domain and actin-binding protein 1 (Mus musculus) (UniProt Q9ERG0). As to the kind of experiment: Inhibition of Lima1 in mouse C2C12 cells assessed as reduction in phospho-sites occupancy at 4 uM after 5 hrs by SILAC based LC-MS/MS analysis relative to control. It is filed as cell-based.
The target in experiment [7] is Serine/arginine repetitive matrix protein 1 (Mus musculus) (UniProt Q52KI8). As to the kind of experiment: Inhibition of Srrm1 in mouse C2C12 cells assessed as reduction in phospho-sites occupancy at 4 uM after 5 hrs by SILAC based LC-MS/MS analysis relative to control. Format: cell-based.
The target of experiment [8] is 1-phosphatidylinositol 4,5-bisphosphate phosphodiesterase delta-3 (Mus musculus) (UniProt Q8K2J0). As to the kind of experiment: Inhibition of Plcd3 in mouse C2C12 cells assessed as reduction in phospho-sites occupancy at 4 uM after 5 hrs by SILAC based LC-MS/MS analysis relative to control. It is filed as cell-based.
In experiment [9] the target is Nucleolar RNA helicase 2 (Mus musculus) (UniProt Q9JIK5). As to the kind of experiment: Inhibition of Ddx21 in mouse C2C12 cells assessed as reduction in phospho-sites occupancy at 4 uM after 5 hrs by SILAC based LC-MS/MS analysis relative to control. It is filed as cell-based.
The target in experiment [10] is DNA polymerase delta subunit 3 (Mus musculus) (UniProt Q9EQ28). As to the kind of experiment: Inhibition of Pold3 in mouse C2C12 cells assessed as reduction in phospho-sites occupancy at 4 uM after 5 hrs by SILAC based LC-MS/MS analysis relative to control. Format: cell-based.
In experiment [11] the target is Cyclin-dependent kinase 4 (Mus musculus) (UniProt P30285). As to the kind of experiment: Inhibition of Cdk4 in mouse C2C12 cells assessed as reduction in phospho-sites occupancy at 4 uM after 5 hrs by SILAC based LC-MS/MS analysis relative to control. Format: cell-based.
Experiment [12] concerns the target Small ubiquitin-related modifier 1 (Mus musculus) (UniProt P63166). As to the kind of experiment: Inhibition of Sumo1 in mouse C2C12 cells assessed as reduction in phospho-sites occupancy at 4 uM after 5 hrs by SILAC based LC-MS/MS analysis relative to control. It is filed as cell-based.
Experiment [13] addresses Coiled-coil domain-containing protein 43 (Mus musculus) (UniProt Q9CR29). As to the kind of experiment: Inhibition of Ccdc43 in mouse C2C12 cells assessed as reduction in phospho-sites occupancy at 4 uM after 5 hrs by SILAC based LC-MS/MS analysis relative to control. It is filed as cell-based.
For experiment [14], the target named is Autophagy-related protein 9A (Mus musculus) (UniProt Q68FE2). As to the kind of experiment: Inhibition of Atg9a in mouse C2C12 cells assessed as reduction in phospho-sites occupancy at 4 uM after 5 hrs by SILAC based LC-MS/MS analysis relative to control. It is filed as cell-based.
Experiment [15] deals with Lamina-associated polypeptide 2, isoforms beta/delta/epsilon/gamma (Mus musculus) (UniProt Q61029). As to the kind of experiment: Inhibition of LAP2B epsilon in mouse C2C12 cells assessed as reduction in phospho-sites occupancy at 4 uM after 5 hrs by SILAC based LC-MS/MS analysis relative to control. It is filed as cell-based.
The target of experiment [16] is Eukaryotic translation initiation factor 5B (Mus musculus) (UniProt Q05D44). As to the kind of experiment: Inhibition of eukaryotic translation initiation factor 5B in mouse C2C12 cells assessed as reduction in phospho-sites occupancy at 4 uM after 5 hrs by SILAC based LC-MS/MS analysis relative to control. Format: cell-based.
In experiment [17] the target is Chaperone Ric-8A (Mus musculus) (UniProt Q3TIR3). As to the kind of experiment: Inhibition of Ric8a in mouse C2C12 cells assessed as reduction in phospho-sites occupancy at 4 uM after 5 hrs by SILAC based LC-MS/MS analysis relative to control. Format: cell-based.
For experiment [18], the target named is Survival motor neuron protein (Mus musculus) (UniProt P97801). As to the kind of experiment: Inhibition of survival motor neuron protein in mouse C2C12 cells assessed as reduction in phospho-sites occupancy at 4 uM after 5 hrs by SILAC based LC-MS/MS analysis relative to control. Format: cell-based.
For experiment [19], the target named is Casein kinase 2 (Mus musculus) (UniProt Q60737+P67871+O54833+Q8CH19). As to the kind of experiment: Inhibition of CK2 in mouse C2C12 cells assessed as reduction in Akt phosphorylation at S129 residues at 1 to 4 uM by Western blot analysis. It is filed as cell-based. Conditions: dose 1-4 µM. (In general: In western blotting, separated proteins are transferred to a membrane and probed.)

The target of experiment [20] is EH domain-containing protein 2 (Mus musculus) (UniProt Q8BH64). As to the kind of experiment: Inhibition of Ehd2 in mouse C2C12 cells assessed as reduction in phospho-sites occupancy at 4 uM after 5 hrs by SILAC based LC-MS/MS analysis relative to control. It is filed as cell-based.
For experiment [21], the system named is Golgi-specific brefeldin A-resistance guanine nucleotide exchange factor 1 (Mus musculus). As to the kind of experiment: Inhibition of Gbf1 in mouse C2C12 cells assessed as reduction in phospho-sites occupancy at 4 uM after 5 hrs by SILAC based LC-MS/MS analysis relative to control.
The target of experiment [22] is Band 4.1-like protein 1 (Mus musculus) (UniProt Q9Z2H5). As to the kind of experiment: Inhibition of Epb41l1in mouse C2C12 cells assessed as reduction in phospho-sites occupancy at 4 uM after 5 hrs by SILAC based LC-MS/MS analysis relative to control. It is filed as cell-based.
For a further experiment, the target named is Kinectin (Mus musculus) (UniProt Q61595). As to the kind of experiment: Inhibition of Ktn1 in mouse C2C12 cells assessed as reduction in phospho-sites occupancy at 4 uM after 5 hrs by SILAC based LC-MS/MS analysis relative to control. Format: cell-based.
The target in experiment [23] is Dual E2 ubiquitin-conjugating enzyme/E3 ubiquitin-protein ligase BIRC6 (Mus musculus) (UniProt O88738). As to the kind of experiment: Inhibition of Birc6 in mouse C2C12 cells assessed as reduction in phospho-sites occupancy at 4 uM after 5 hrs by SILAC based LC-MS/MS analysis relative to control. Format: cell-based.

In the case of `COc1cc(/C=N/n2c(SC)nnc2-c2ccccc2)c(Br)cc1O`, the fold change (FC) in experiment [1] was 4.17; in experiment [2], 1.86; in experiment [3], 2.58; in experiment [4], 2.12; in experiment [5], 1.96; in experiment [6] it was 2.39. Besides, the fold change (FC) was 2.36 in experiment [7]; 3.31 in [8]; 1.66 in [9]; 1.66 in experiment [10]; 3.97 in [11]; 1.75 in [12]. In addition, the fold change (FC) amounted to 2.68 in experiment [13]; 1.8 in experiment [14]; 3.86 in experiment [15]; 1.55 in experiment [16]; 1.93 in experiment [17]; 1.52 in experiment [18]. Moreover, the fold change (FC) stood at 2.18 in experiment [20]; 2.55 in experiment [21]; 2.85 in experiment [22]; 1.98 at Kinectin (Mus musculus); 1.62 in [23]. Also, in experiment [19], the inhibition entry is “Active”.
